Test results as given in patent EP2272817A1, “PAI-1 INHIBITOR” (Institute of Medicinal Molecular Design, Inc., priority 2008, dated 2009).
Read-outs that look alike come from different tables or passages of the source.

Legend:
[1] = target: T1, recombinant human PAI-1 (Homo sapiens, UniProt P05121); assay: biochemical
Procedure: To this solution, 6 µl of 80 nM recombinant human PAI-1 (Molecular Innovations, Inc.) solution prepared with Tris buffer was added, and the plate was incubated for 5 minutes at room temperature. Furthermore, 30 µl of 800 IU/ml two-chain tPA (Activity Standard; American diagnostica, inc.) prepared with Tris buffer was added, and the mixed solution was incubated for 15 minutes at room temperature. Then, 30 µl of 400 µM fluorogenic substrate (Pyr-Gly-Arg-MCA; Peptide Institute, Inc.) for tPA prepared with Tris buffer was added and reacted for 30 minutes at room temperature.
50 mM Tris, 150 mM NaCl, 10 µg/ml BSA, 0.01 % Tween80 (SIGMA-ALDRICH Corporation)

[2] = target: T1, recombinant human PAI-1; assay: Test Example 2: Human PAI-1 Inhibitory Activity (pH 7.4 HEPES buffer, 10 minutes incubation with two-chain tPA); assay type: biochemical; set-up: purchased Molecular Innovations, Inc; details: read-out: Inhibition Rate of PAI-1 Activity (%)
Procedure: 0.1 M HEPES, 0.1 M NaCl. 1 mM EDTA. 0.1 % Polyethylene glycol 8,000 (Hampton Research Corporation),
2 mM Dimethyldecylphoshine oxide [Apo-10] (Fluka Corporation)

[3] = target: T1, recombinant human PAI-1; assay: Test Example 4: Human PAI-1 Inhibitory Activity (amount of PAI-1 bound to plate-coated one-chain tPA, ELISA); assay type: biochemical; set-up: purchased Molecular Innovations, Inc; details: human PAI-1 bound to tPA, read-out: Inhibition Rate of PAI-1 Activity (%); for inhibition at 0.3 µM: Compound Concentration 0.3µM; for inhibition at 1 µM: Compound Concentration 1µM; for inhibition at 3 µM: Compound Concentration 3µM
Procedure: 100 µl of tPA solution, where one-chain recombinant tPA (hereinafter reffered to as tPA; American diagnostica, inc.) had been diluted with Buffer A to acheive a concentration of 10 µg/ml, was added to each well of a 96-well plate (Nunc Maxisorp), and the plate was incubated for one night at 4 °C to be coated with tPA. Then, after suction of tPA solution from the 96-well plate, the plate was rinsed successively with Buffer A and Buffer B. To Buffer B, solutions of the compound according to the present invention dissolved with DMSO (final DMSO concentration: 0.2 %) and recombinant human PAI-1 (Molecular Innovations, Inc.) were added. The mixtures were blended so that the final concentrations would be 0.1 to 3.0 µM and 50 ng/ml respectively, and were incubated for 15 minutes on ice. These mixed solutions were added to the rinsed 96-well plate at 100 µl/well, and incubated for 60 minutes at room temperature. To prepare a calibration curve, PAI-1 solutions without the compound according to the present invention (solutions where the final concentrations being 100, 50, 25, 12.5, 6.25, 3.13, or 1.56 ng/ml PAI-1) were added at 100 µl/well, and the plate was incubated for 60 minutes at room temperature, as standard.
After incubation, the reaction mixture was removed by suction, and each well was rinsed with Wash Buffer. Next, anti-human PAI-1 monoclonal antibody (PROGEN Inc.) diluted with Buffer C to be 3.0 µg/ml was added to the 96-well plate at 100 µl/well, and the plate was incubated for 1 hour at room temperature. After rinsing each well with Wash Buffer, alkaline phosphatase-labeled goat anti-mouse IgG (H+L) (Jackson ImmunoResearch, Inc.) diluted with Buffer D to be 0.12 µg/ml was added at 100 µl/well, and the plate was incubated for 1 hour at room temperature. After rinsing each well with Wash Buffer, 1.0 mg/ml p-Nitrophenyl Phosphate (SIGMA) was added to the 96-well plate at 100 µl/well to start the reaction. After 30 to 60 minutes, 25 µl of 0.5 N NaOH was added to stop the reaction, and the absorbance was measured at 405 nm using a multiplate reader (GENios; TECAN G.M.B.H.).
Based on the calibration curve prepared from the standard wells, amounts of PAI-1 bound to tPA in the wells that had been treated with the compound according to the present invention were calculated, and the PAI-1 inhibition rates by the compounds according to the present invention were obtained by the following equation. [API-1InhibitionRate(%)] = [1-(amountofPAI-1boundtotPaonthewellbytreatmentwiththecompondaccordingtothepresentinvention)/(amountofPAI-1boundtotPAonthewellbytreatmentwithPAI-1solutionnotincledingthecompondaccordingtotheinvention(solution having the final concentration of 50 nb/ml PAI-1)] × 100 [formula] • <Composition of Buffer A> 0.1 M Tris-HCl, 150 mM NaCl, pH 7.7 • <Composition of Buffer B> 50 mM sodium phosphate, 0.1 M NaCl, 1 mM EDTA, pH 6.6 • <Composition of Buffer C> 50 mM sodium phosphate, 100 mM NaCl, pH 7.4 • <Composition of Buffer D> 0.01 M Tris-HCl, 0.25 M NaCl, pH 8.0 • <Compositon of Wash Buffer> 0.05 % Tween 20, 0.1 % BSA in Buffer A • <Composition of p-Nitrophenyl Phosphate solution> 1 M Diethanolamine 0.5 mM MgCl2, p-Nitrophenyl phosphate, pH 9.8

[4] = target: T2, recombinant rat PAI-1 (Rattus norvegicus, UniProt P20961); assay: biochemical; details: read-out: Inhibition Rate of PAI-1 Activity (%)
T2 sequence (P20961 24-402): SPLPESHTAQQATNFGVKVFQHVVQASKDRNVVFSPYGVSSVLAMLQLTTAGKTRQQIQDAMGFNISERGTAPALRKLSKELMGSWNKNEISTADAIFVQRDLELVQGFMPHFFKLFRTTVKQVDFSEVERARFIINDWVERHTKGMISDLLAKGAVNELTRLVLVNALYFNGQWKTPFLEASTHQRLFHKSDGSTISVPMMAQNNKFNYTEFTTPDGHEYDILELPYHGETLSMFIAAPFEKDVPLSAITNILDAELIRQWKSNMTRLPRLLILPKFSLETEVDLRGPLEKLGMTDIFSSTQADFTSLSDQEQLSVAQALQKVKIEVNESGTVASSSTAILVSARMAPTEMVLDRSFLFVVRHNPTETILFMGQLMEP

[5] = read-out: Inhibition Rate of PAI-1 Activity (%), Compound Concentration 5µM
[6] = read-out: Inhibition Rate of PAI-1 Activity (%), Compound Concentration 10µM
[7] = read-out: Inhibition Rate of PAI-1 Activity (%), Compound Concentration 25µM
[8] = read-out: Inhibition Rate of PAI-1 Activity (%)

T1 sequence (P05121 24-402): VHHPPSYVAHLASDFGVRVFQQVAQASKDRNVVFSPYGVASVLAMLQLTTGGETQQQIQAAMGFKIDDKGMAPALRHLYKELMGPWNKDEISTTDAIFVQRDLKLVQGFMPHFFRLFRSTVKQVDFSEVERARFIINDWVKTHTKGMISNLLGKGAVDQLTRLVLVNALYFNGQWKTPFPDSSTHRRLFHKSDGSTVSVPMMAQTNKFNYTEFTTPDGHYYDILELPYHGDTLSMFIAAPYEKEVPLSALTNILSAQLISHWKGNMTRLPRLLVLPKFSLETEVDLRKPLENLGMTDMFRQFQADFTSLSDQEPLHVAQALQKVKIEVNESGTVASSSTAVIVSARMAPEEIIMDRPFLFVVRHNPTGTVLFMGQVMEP

Row | inhibition at 5 µM [1, 8] [%] | inhibition at 10 µM [1, 8] [%] | inhibition at 25 µM [1, 8] [%] | SMILES | inhibition at 5 µM [1, 5] [%] | inhibition at 10 µM [1, 6] [%] | inhibition at 25 µM [1, 7] [%] | inhibition at 0.1 µM [2] [%] | inhibition at 0.3 µM [2] [%] | inhibition at 1 µM [2] [%] | inhibition at 3 µM [2] [%] | inhibition at 0.3 µM [3] [%] | inhibition at 1 µM [3] [%] | inhibition at 3 µM [3] [%] | inhibition at 0.3 µM [4] [%] | inhibition at 1 µM [4] [%] | inhibition at 3 µM [4] [%] | inhibition at 10 µM [4] [%]
1 |  |  |  | Cc1ccc(N(Cc2ccc(C(C)(C)C)cc2)C(=O)C(=O)O)cc1-c1ccc(OC(F)(F)F)cc1 [Compound 176] | 65 | 94 | 91 | 0 | 10 | 21 | 96 | 9 | 9 | 29 | 0 | 23 | 71 | > 99
2 |  |  |  | CCCCOc1ccc(-c2ccc(OC(F)(F)F)cc2)cc1N(Cc1ccc(C(C)(C)C)cc1)C(=O)C(=O)O [Compound 189] | 87 | 95 |  | 4 | 2 | 60 | 97 | 16 | 30 | 70 | 9 | 32 | 93 | > 99
3 | 43 | 82 | 94 | CC(C)(C)c1ccc(Oc2cc(-c3ccc(OC(F)(F)F)cc3)ccc2CCC(=O)O)cc1 [Compound 80] |  |  |  | 3 | 11 | 44 | > 99 | 0 | 0 | 29 | 0 | 11 | 71 | 84
4 |  |  |  | CCC(CC)Oc1ccc(N(Cc2ccc(C(C)(C)C)cc2)C(=O)C(=O)O)cc1-c1ccc(OC(F)(F)F)cc1 [Compound 197] | 90 | 92 | 73 | 6 | 1 | 38 | > 99 | 21 | 34 | 73 | 0 | 37 | 84 | 75
5 |  |  |  | CC(C)(C)c1ccc(CN(C(=O)C(=O)O)c2cccc(Oc3ccc(OC(F)(F)F)cc3)c2)cc1 [Compound 172] | 58 | 89 | 94 | 4 | 8 | 18 | 76 |  |  |  | 0 | 6 | 49 | 97
6 |  |  |  | CCCCOc1ccc(N(Cc2ccc(C(C)(C)C)cc2)C(=O)C(=O)O)cc1-c1ccc(OC(F)(F)F)cc1 [Compound 193] | 81 | 89 |  | 2 | 5 | 34 | > 99 |  |  |  | 2 | 26 | 81 | 70
7 |  |  |  | CC(C)(C)c1ccc(COc2ccc(-c3ccc(OC(F)(F)F)cc3)cc2N(Cc2ccccc2)C(=O)C(=O)O)cc1 [Compound 179] | 64 | 91 |  | 1 | 19 | 68 | > 99 |  |  |  | 7 | 38 | > 99 | > 99
8 | 87 | 93 |  | CN(C)c1ccc(N(Cc2ccc(C(C)(C)C)cc2)C(=O)C(=O)O)cc1-c1ccc(OC(F)(F)F)cc1 [Compound 214] |  |  |  | 4 | 2 | 40 | 96 |  |  |  | 0 | 8 | 77 | 97
9 |  |  |  | CC(C)(C)c1ccc(CN(C(=O)C(=O)O)c2ccc(-c3ccc(OC(F)(F)F)cc3)cc2Cl)cc1 [Compound 147] | 38 | 80 | 92 | 0 | 7 | 35 | 99 |  |  |  | 0 | 14 | 70 | 87
10 | 24 | 54 | 98 | CC(C)(C)c1ccc(COc2cc(-c3ccc(OC(F)(F)F)cc3)ccc2CCC(=O)O)cc1 [Compound 76] |  |  |  | 10 | 12 | 37 | 99 |  |  |  | 0 | 6 | 56 | 86
11 |  |  |  | CC(C)(C)c1ccc(COc2c(OCC(=O)O)cccc2-c2ccc(OC(F)(F)F)cc2)cc1 [Compound 117] | 63 | 91 | 96 | 2 | 7 | 46 | > 99 |  |  |  | 0 | 7 | 63 | 94
12 |  |  |  | CC(C)(C)c1ccc(CN(C(=O)C(=O)O)c2cc(C(F)(F)F)ccc2-c2ccc(OC(F)(F)F)cc2)cc1 [Compound 168] | 63 | 94 |  | 0 | 0 | 33 | 99 |  |  |  | 0 | 12 | 81 | 97
